# Measurements reported in US8772329B2, “Compounds from mycelium of Antrodia cinnamomea and use thereof” (Simpson Biotech Co., Ltd., priority 2008, dated 2014).
# Legend:
# [1] = molecular target: T1, HCV NS3/4A protease (Hepatitis C virus genotype 1b, UniProt O92972); assay: HCV protease inhibition assay (SensoLyte 520 HCV Protease Assay Kit, FRET peptide substrate); assay type: biochemical; conditions: for IC50: enzyme 0.5 μg/ml, 30 min at room temperature (28° C.), read-out: IC50 against HCV protease (converted)
# T1 construct: HCV NS3/4A protease; purchased AnaSpec, San Jose, Calif., USA lot# Lot 046-047 (screening); lot# Lot 046-079 (mechanism study); catalogue number not given
# T1 sequence (O92972 1013-1207, looked up, natural form): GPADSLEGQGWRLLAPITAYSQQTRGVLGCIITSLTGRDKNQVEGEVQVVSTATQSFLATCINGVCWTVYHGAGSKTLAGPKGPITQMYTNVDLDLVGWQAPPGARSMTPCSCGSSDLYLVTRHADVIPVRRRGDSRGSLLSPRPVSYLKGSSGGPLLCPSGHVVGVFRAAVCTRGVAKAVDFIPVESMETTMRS
# Excerpt: Since the mycelium of Antrodia cinnamomea was recently reported to be clinically effective for hepatitis patients infected with HCV (Akiba T et al. 2007. Clinical study of Shoshi on Japanese hepatitis patients infected with C type hepatitis virus. The second Taiwan and Japan Symposium on Antrodia cinnamomea, Abst. pp. 82-98), a SensoLyte™ 520 HCV protease assay kit was applied to investigate the HCV-protease inhibitory activity of the isolated antrodins, the metabolites of antrodin C as well as one metabolite analogue. The assay method with a quenched-fluorogenic peptide substrate can be used for measure the activity of inhibitors as well as for continuous recording of the progress of the enzyme reaction.
# The mode of inhibition was kinetically analyzed by plotting the enzyme activity at different concentrations of the substrate (10, 50, 100 and 200 times dilution of the substrate stocking solution) with (5 μg/ml, and 10 μg/ml) and without [0 μg/ml (DMSO)] compound 1.
# HCV NS3/4A protease (lot# Lot 046-047 for the screening and lot# Lot 046-079 for the mechanism study) and SensoLyte™ 520 HCV Protease Assay Kit *Fluorimetric* (lot# AK 71147-1005) were purchased from AnaSpec, San Jose, Calif., USA. The substrate was a 5-FAM/QXL™520 FRET peptide based on the sequence of Ac-Asp-Glu-Asp(EDANS)-Glu-Glu-Abu-Ψ-[COO]Ala-Ser-Lys(DABCYL)-NH2. The assay was carried out on BD Falcon™ Microtest™384-well 120 μl black assay plates (lot#05391155). Fluorescence was measured by TECAN GENios plate reader at excitation/emission 485/530 nm Chemical compounds. Antrodins A-E (compounds 1-5) were isolated from the mycelium of Antrodia cinnamomea as reported (Nakamura et al., 2004. Five new maleic and succinic acid derivatives from the mycelium of Antrodia comphorata and their cytotoxic effects on LLC tumor cell line. J Nat Prod 67: 46-48). Embelin used as a positive control was isolated in our laboratory in previous work (Hussein et al., 2000, Inhibitory effects of Sudanese medicinal plant extracts on hepatitis C virus (HCV) Protease. Phytother Res 14: 510-516). Compounds 6, 7a and 7b were detected as the metabolites of antrodin C in vivo. Compounds 7a and 7b were un-separable due to the equilibrium of these two compounds through compound 1. It was thus used for the assay as a mixture of compounds 1, 7a and 7b and named 7. Compound 8 was an analogue of another metabolite whose glycine group was supposed to connect to the other carboxyl group in the structure.
# Compound 6 was dissolved in H2O and other compounds were dissolved in DMSO for the assay. To each well were added 2 μl of respective compound solution and 8 μl of freshly diluted enzyme (0.5 μg/ml). The reaction was started by adding 10 μl of freshly diluted substrate (100 times dilution of a DMSO stocking solution). After being incubated at room temperature (28° C.) for 30 min, the fluorescence intensities were measured at Ex/Em=485 nm/535 nm. Inhibition percentages were calculated as 100×(Fvehicle−Fsample)/Fvehicle=% inhibition, where F is the fluorescence value of vehicle control or of compound minus the fluorescence of the substrate control.
# [2] = cited from earlier work
# [3] = tested on: Propionicbacterium acnes and lipopolysaccharide treated mice; conditions: cited from earlier work
SMILES,IC50 [1],further results
"CC(C)=CCOc1ccc(C2=C(CC(C)C)C(=O)OC2=O)cc1 [Compound 1, 3-isobutyl-4-[4-(3-methyl-2-butenyloxy)phenyl]furan-2,5-dione]",2.86 µM,"mode of HCV PR inhibition (Lineweaver-Burk plot) ([1]; compound 1 at 0, 5 and 10 μg/ml, substrate 10, 50, 100 and 200 times dilution): competitive"
"CC(C)=CCOc1ccc(C2=C(CC(C)C)C(=O)NC2=O)cc1 [Compound 2, 3-isobutyl-4-[4-(3-methyl-2-butenyloxy)phenyl]-1H-pyrrol-2,5-dione]",> 319 µM,–
"CC(C)=CCOc1ccc(C2=C(CC(C)C)C(=O)N(O)C2=O)cc1 [Compound 3, 3-isobutyl-4-[4-(3-methyl-2-butenyloxy)phenyl]-1H-pyrrol-1-ol-2,5-dione]",8.8 µM,"detection of parent compound in the body ([2]; after absorption): could not be detected in the body after absorption; absorption ([2]; gastrointestinal tract): quickly absorbed from the gastrointestinal tract; metabolization ([2]; liver): rapid and complete metabolization in liver; in vivo metabolism (metabolites formed) ([2]; metabolites: compounds 1, 2, 6, 7a, 7b and an analogue of compound 8): converted to six metabolites; protective activity [3]: showed protective activity"
"CC(C)=CCOc1ccc(C2C(=O)N(O)C(=O)C2CC(C)C)cc1 (centres unmarked) [Compound 4, 3R*,4S*-1-hydroxy-3-isobutyl-4-[4-(3-methyl-2-butenyloxy)phenyl]pyrrolidine-2,5-dione]",60.3 µM,–
"CC(C)=CCOc1ccc(C2C(=O)N(O)C(=O)C2CC(C)C)cc1 (centres unmarked) [Compound 5, 3R*,4R*-1-hydroxy-3-isobutyl-4-[4-(3-methyl-2-butenyloxy)phenyl]pyrrolidine-2,5-dione]",60.6 µM,–
"CC(C)=CCOc1ccc(/C(C(=O)O)=C(\CC(C)C)C(=O)O)cc1 [Compound 6, (2Z)-2-isobutyl-3-{4-[(3-methylbut-2-en-1-yl)oxy]phenyl}but-2-enedioic acid]",19.9 µM,–
CC(C)=CCOc1ccc(/C(C(=O)NCC(=O)O)=C(\CC(C)C)C(=O)O)cc1 [Compound 8],148 µM,–
"CCCCCCCCCCCC1=C(O)C(=O)C=C(O)C1=O [Embelin, reference compound]",13.9 µM,–
